Measurements taken from patent US5428031A, “Methods of treating cardiac arrhythmia” (priority 1993, dated 1995).

Experiments:
[1] = test system: anesthetized dogs; test: frequency-dependent effects on cardiac (ventricular) refractory period in anesthetized dogs; type: in vivo, dog; conditions: 1.0 mg/kg i.v.
Experimental: Purpose-bred male or female mongrel dogs (9.8-10.8 kg) were anesthetized with alpha chloralose (80-100 mg/kg i.v.), and the animals were ventilated using a volume-cycled respirator. The right femoral artery and vein were isolated and cannulated for the measurement of systemic arterial pressure and for test agent administration, respectively. A right thoracotomy was performed in the 4th intercostal space, the pericardium incised, and the heart suspended in a pericardial cradle. One stainless steel bipolar plunge electrode was sutured to the ,anterior surface of the right ventricle for the determination of ventricular excitation threshold and refractory periods, while a second stainless steel bipolar plunge electrode was sutured to the right ventricular apex for ventricular pacing. A 21 gauge stainless steel hypodermic needle attached to a 1 ml syringe containing 40% formaldehyde was introduced into the right atrium via a stab wound and purse-string suture. The atrioventricular (AV) node was identified and then chemically ablated with formaldehyde using the method of Steiner and Kovalik (Steiner C. and Kovalik A. T. W., "A simple technique for production of chronic complete heart block in dogs", J. Appl. Physiol. 25: 631-632:, 1968). After the ablation of the AV node, heart rate was controlled and maintained at either 60 or 150 beats/min, as dictated by the experimental protocol, by ventricular apical pacing. Limb electrodes were attached for the continuous recording of Lead II electrocardiogram.
Ventricular excitation threshold (ET) and relative refractory periods (RRPs) were determined alternately at heart rates of 60 and 150 beats/min using an extrastimulus technique described previously (Wallace A. A. et. al., "Cardiac electrophysiologic and inotropic actions of new and potent methanesulfonanilide Class III antiarrhythmic agents in the anesthetized dog". J. Cardiovasc. Pharmacol. 18: 687-695, 1991). Ventricular excitation threshold was defined as the minimum current required to evoke a propagated response for a ventricular extrastimulus introduced at a coupling interval of 250-300 msec after a basic ventricular apical beat. The ventricular relative refractory period was defined as the longest coupling interval failing to elicit a propagated response for a ventricular extrastimulus introduced with a current intensity of 2× the ventricular excitation threshold. Multiple alternating baseline 60 and 150 beat/min RRPs were measured in each preparation, with two-to-three stable consecutive baseline RRP determinations required prior to administration of the test agent.
The compound of Example 26 was administered intravenously at a dosage of 1.0 mg/kg over a period of 5 minutes to a group of 5 anesthetized dogs. The compound of Example 26 was infused in a vehicle of 2% cremophor/2% ethanol/96% saline, at a test agent concentration of 0.5 mg/ml. Ventricular RRPs at 60 and 150 beats/min were redetermined immediately, 15 and 30 minutes following the intravenous administration of the compound of Example 26. The frequency-dependence of the activity of the compound of Example 26 was assessed by comparing absolute increases in ventricular RRPs from the final corresponding baseline value determined at slower (60 beat/min) vs faster (150 beat/min) heart rates.

[2] = test system: IK1 (inward rectifier K+ current); test: voltage clamp measurement of IK1 block in isolated guinea pig ventricular myocytes; type: cell-based; conditions: 1 μM
Experimental: Guinea pig ventricular myocytes were isolated using a modification of the procedure described by Mitra R and Morad M., "A Uniform Enzymatic Method for Dissociation of Myocytes from Hearts and Stomachs of Nertilorates", Am. J. Physiol. 249:H1056-60 (1985). Excised hearts were perfused through the aorta (retrograde fashion) at a rate of 10 ml/min with oxygenated, warmed (37° C.) solutions described below. The heart was initially perfused for 7 minutes with a Tyrode's solution containing, in mM: 132 NaCl, 4 KCl, 1.2 MgCl2, 10 HEPES (formal name N-2-Hydroxyethylpiperazine-N-2-ethanesulfonic acid), 5 glucose, pH=7.2. The head was then perfused with the same nominally Ca^2+ -free solution containing 150 units/ml Type II collagenase (Worthington) and 0.5 units/ml Type XIV protease (Sigma) for 8 minutes. This perfusate was followed by a Tyrode's solution containing 0.2 mM CaCl2 (without enzymes) for 5 minutes. The digested ventricles were cut into small pieces and gently shaken until cells were visibly dispersed. […]
The suction microelectrode technique described by Giles, W. R. and Shibata, E. F., "Voltage clamp of bull-frog cardiac pacemaker cells: a quantitative, analysis of potassium currents". […]
To record K^+ currents, the cells were bathed in a Ca^2+ -free Tyrode's :solution containing […] nisoldipine. […] Data was analyzed as % block from control membrane currents. […]

| Compound | Increase in Ventricular Relative Refractory Period above baseline ([1]; 60 beat/min, 15 Min) [ms] | Increase in Ventricular Relative Refractory Period above baseline ([1]; 60 beat/min, 30 Min) [ms] | Increase in Ventricular Relative Refractory Period above baseline ([1]; 60 beat/min, Immediate) [ms] | Increase in Ventricular Relative Refractory Period above baseline ([1]; 150 beat/min, 15 Min) [ms] | Increase in Ventricular Relative Refractory Period above baseline ([1]; 150 beat/min, 30 Min) [ms] | Increase in Ventricular Relative Refractory Period above baseline ([1]; 150 beat/min, Immediate) [ms] | frequency dependence of increase in ventricular RRP ([1]; 60 and 150 beat/min) | effect on IK1 [2] |
| --- | --- | --- | --- | --- | --- | --- | --- | --- |
| CN1C(=O)[C@H](NC(=O)/C=C/c2ccc(Cl)cc2Cl)N=C(c2ccccc2)c2ccccc21 [Example 26, E-(+)-N-[(3R)-2,3-Dihydro-1-methyl-2-oxo-5-phenyl-1H-1,4-benzo-diazepin-3-yl]-3-(2,4-dichlorophenyl)-2-propenamide] | 19.2 ± 3.4 | 14.0 ± 2.3 | 29.6 ± 4.4 | 15.6 ± 4.1 | 11.4 ± 4.4 | 23.2 ± 7.3 | Equivalent increases in the ventricular RRPs |  |
| Cc1cccc(NC(=O)N[C@@H]2N=C(c3ccccc3)c3ccccc3N(C)C2=O)c1 [Compound 4, (R)-N-(2,3-dihydro-1-methyl-2-oxo-5-phenyl-1H-1,4-benzodiazepin-3-yl)-N'-(3-methylphenyl)urea] |  |  |  |  |  |  |  | Little or no effect |
